Reference: PubChem BioAssay (NCI)
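Test compounds were applied to cells in 96-well plates for 48 hours at 5 doses. TGI: total growth inhibition.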

Tested on: P388 leukemia
Experiment: NCI tumour cell line growth inhibition, 48 h

## COc1cc(C[C@H]2c3cc(OC)c(OC)cc3CCN2C)c(Oc2cc3c(cc2OC)-c2c(OC)c(OC)cc4c2[C@H](C3)N(C)CC4)cc1OC
  TGI: 22 µM

## CC1CCC(NC(=O)N(CCCl)N=O)CC1 (configuration not stated)
  TGI: 55.8 µM
